# Source: patent US10858335B2 (Rigel Pharmaceuticals, Inc., priority 2014, dated 2020)
# Where a name gives a salt, the structure may show the parent alone.
# Tested on: GDF8 signaling (p-SMAD-3 (Ser423/425))
# Assay: AlphaScreen SureFire SMAD3 (p-Ser423/425) assay, GDF8-stimulated cells (GDF pSMAD)
# Type: cell-based
# Details: Mus musculus, MPC-11, GDF8-stimulated pSMAD3, MPC11; tested as the salt form given; read-out: GDF pSMAD (MPC11) (μM), inhibition of GDF8 signaling
row,SMILES,IC50 [µM]
1,"Cc1cc(-c2ncccc2-c2ccc3ncnc(NC(C)C(N)=O)c3c2)ccc1F (stereo not shown) [compound 1027, 2-((6-(2-(4-fluoro-3-methylphenyl)pyridin-3-yl)quinazolin-4-yl)amino)propanamide]",10.8
2,"Nc1ncnc2ccc(-c3cccnc3-c3cccc(OC(F)F)c3)cc12 [compound 982, 6-(2-(3-(difluoromethoxy)phenyl)pyridin-3-yl)quinazolin-4-amine]",0.0411
3,"COc1cc(-c2ncccc2-c2ccc3ncnc(N)c3c2)c(C)cc1F [compound 1022, 6-(2-(4-fluoro-5-methoxy-2-methylphenyl)pyridin-3-yl)quinazolin-4-amine]",13.7

# The next lines start with the values.
row,IC50 [µM],SMILES
1,1.09,"Cn1ccc(Nc2ncnc3ccc(-c4cccnc4-c4cc(Cl)ccc4F)cc23)n1 [compound 1032, 6-(2-(5-chloro-2-fluorophenyl)pyridin-3-yl)-N-(1-methyl-1H-pyrazol-3-yl)quinazolin-4-amine]"
2,2.44,"Nc1ncnc2ccc(-c3cc(F)cnc3-c3ccc(F)c(Cl)c3)cc12 [compound 998, 6-(2-(3-chloro-4-fluorophenyl)-5-fluoropyridin-3-yl)quinazolin-4-amine]"

# Same assay, conditions: Mus musculus, MPC-11, MPC11; GDF8-stimulated; p-SMAD3 AlphaScreen; read-out: GDF pSMAD (MPC11) (inhibition of GDF8 signaling)
row,SMILES,IC50 [µM]
1,"Cc1cc(-c2ncccc2-c2ccn3ncc(C(=O)NCC45CCCN4CCC5)c3c2)ccc1F [compound 804, 5-(2-(4-Fluoro-3-methylphenyl)pyridin-3-yl)-N-((tetrahydro-1H-pyrrolizin-7a(5H)-yl)methyl)pyrazolo[1,5-a]pyridine-3-carboxamide]",10.1
2,"Cc1cccc(-c2ncccc2-c2ccc3ncsc3n2)c1 [compound 304, 5-(2-(m-Tolyl)pyridin-3-yl)thiazolo[5,4-b]pyridine]",0.0853
3,"Cc1cccc(-c2ncccc2-c2ccc3[nH]cnc(=O)c3c2)c1 [compound 361, 6-(2-(m-tolyl)pyridin-3-yl)quinazolin-4(1H)-one]",0.23
4,"COc1ncnc2ccc(-c3cccnc3-c3cccc(C4CC4)c3)cc12 [compound 377, 6-(2-(3-Cyclopropylphenyl)pyridin-3-yl)-4-methoxyquinazoline]",0.172
5,"Cc1cc(-c2ncc(NCc3cncs3)cc2-c2ccc3ncsc3c2)ccc1F [compound 327, 5-(Benzo[d]thiazol-6-yl)-6-(4-fluoro-3-methylphenyl)-N-(thiazol-5-ylmethyl)pyridin-3-amine]",0.323
6,"N#CCOc1cccc(-c2ncccc2-c2ccc3ncnc(N)c3c2)c1 [compound 481, 2-(3-(3-(4-Aminoquinazolin-6-yl)pyridin-2-yl)phenoxy)acetonitrile]",1.28
7,"Cc1cc(-c2ncccc2-c2ccc3ncnc(NCCc4cccnc4)c3c2)ccc1F [compound 414, 6-(2-(4-Fluoro-3-methylphenyl)pyridin-3-yl)-N-(2-(pyridin-3-yl)ethyl)quinazolin-4-amine]",3.33
8,"Cc1cc(-c2ncc(-c3ccc(C(N)=O)cc3)cc2-c2ccc3ncsc3c2)ccc1F [compound 318, 4-(5-(Benzo[d]thiazol-6-yl)-6-(4-fluoro-3-methylphenyl)pyridin-3-yl)benzamide]",1.3
9,"Fc1ccccc1-c1ncccc1-c1ccc2[nH]ncc2c1 [Compound 61, 5-(2-(2-Fluorophenyl)pyridin-3-yl)-1H-indazole]",3.88
10,"N#Cc1cc(-c2ncccc2-c2ccc3ncnc(N)c3c2)ccc1F [compound 477, 5-(3-(4-Aminoquinazolin-6-yl)pyridin-2-yl)-2-fluorobenzonitrile]",0.492
11,"Cc1cccc(-c2ncccc2-c2ccn3cncc3c2)c1 [compound 595, 7-(2-(m-Tolyl)pyridin-3-yl)imidazo[1,5-a]pyridine]",1.16
12,"Cc1cc(-c2ncccc2-c2ccc3ncnc(Oc4cccc(C#N)c4)c3c2)ccc1F [compound 441, 3-((6-(2-(4-Fluoro-3-methylphenyl)pyridin-3-yl)quinazolin-4-yl)oxy)benzonitrile]",1.16
13,"Cc1ccc(-c2ccc3[nH]ncc3c2)c(-c2ccc(F)c(C)c2)n1 [Compound 12, 5-(2-(4-Fluoro-3-methylphenyl)-6-methylpyridin-3-yl)-1H-indazole]",18.9
14,"Cc1cccc(-c2ncccc2-c2ccc3ncc(CN4CCOCC4)n3c2)c1 [compound 570, 4-((6-(2-(m-Tolyl)pyridin-3-yl)imidazo[1,2-a]pyridin-3-yl)methyl)morpholine]",5.9
15,"Cc1cc(-c2ncccc2-c2ccn3ncc(C(=O)N[C@H]4CCCC[C@@H]4N)c3c2)ccc1F [compound 664, N-((1S,2S)-2-Aminocyclohexyl)-5-(2-(4-fluoro-3-methylphenyl)pyridin-3-yl)pyrazolo[1,5-a]pyridine-3-carboxamide]",1.38
16,"Cc1cc(-c2ncccc2-c2ccc3nccc(C(N)=O)c3c2)ccc1F [compound 846, 6-(2-(4-Fluoro-3-methylphenyl)pyridin-3-yl)quinoline-4-carboxamide]",14.3
17,"CCn1cnc2ccc(-c3cccnc3-c3cccc(C)c3)cc21 [Compound 43, 1-Ethyl-6-(2-m-tolylpyridin-3-yl)-1H-benzo[d]imidazole]",1.62
18,"Fc1ccc(Cl)cc1-c1ncccc1-c1ccn2nccc2n1 [compound 917, 5-(2-(5-Chloro-2-fluorophenyl)pyridin-3-yl)pyrazolo[1,5-a]pyrimidine]",0.18

# Next, values leading:
row,IC50 [µM],SMILES
1,1.73,"CCn1cnc2ccc(-c3cccnc3-c3ccc(F)c(C)c3)cc21 [Compound 46, 1-Ethyl-6-(2-(4-fluoro-3-methylphenyl)pyridin-3-yl)-1H-benzo[d]imidazole]"
2,0.364,"Cc1cc(-c2ncccc2-c2ccn3nccc3c2)ccc1F [compound 756, 5-(2-(4-Fluoro-3-methylphenyl)pyridin-3-yl)pyrazolo[1,5-a]pyridine]"
3,2.24,"Fc1cc(F)cc(-c2ncccc2-c2ccc3ncsc3c2)c1 [compound 660, 6-(2-(3,5-Difluorophenyl)pyridin-3-yl)benzo[d]thiazole]"
4,0.676,"Fc1cc(F)c(-c2ncccc2-c2ccn3ncnc3c2)cc1Cl [compound 735, 7-(2-(5-Chloro-2,4-difluorophenyl)pyridin-3-yl)-[1,2,4]triazolo[1,5-a]pyridine]"
5,0.225,"OCc1cnc2ccc(-c3cccnc3-c3cccc(C4CC4)c3)cn12 [compound 567, (6-(2-(3-Cyclopropylphenyl)pyridin-3-yl)imidazo[1,2-a]pyridin-3-yl)methanol]"
6,1.12,"FC(F)(F)Oc1cccc(-c2ncccc2-c2ccn3ncnc3c2)c1 [compound 882, 7-(2-(3-(Trifluoromethoxy)phenyl)pyridin-3-yl)-[1,2,4]triazolo[1,5-a]pyridine]"
7,21.1,"Nc1ncnc2ccc(-c3cccnc3-c3ccc4c(c3)CCC4)cc12 [compound 470, 6-(2-(2,3-Dihydro-1H-inden-5-yl)pyridin-3-yl)quinazolin-4-amine]"
8,1.54,"Cc1cnc(-c2ccc(F)c(Cl)c2)c(-c2ccn3ncnc3c2)c1 [compound 864, 7-(2-(3-Chloro-4-fluorophenyl)-5-methylpyridin-3-yl)-[1,2,4]triazolo[1,5-a]pyridine]"
9,3.44,"COc1cnc(-c2cccc(Cl)c2)c(-c2ccn3ncnc3c2)c1 [compound 855, 7-(2-(3-Chlorophenyl)-5-methoxypyridin-3-yl)-[1,2,4]triazolo[1,5-a]pyridine]"
10,0.543,"N#Cc1cnc2ccc(-c3cccnc3-c3cc(Cl)c(F)cc3F)nn12 [compound 951, 6-(2-(5-Chloro-2,4-difluorophenyl)pyridin-3-yl)imidazo[1,2-b]pyridazine-3-carbonitrile]"
11,0.119,"Nc1ncnc2ccc(-c3cccnc3-c3ccc(F)c(Cl)c3)cc12 [compound 394, 6-(2-(3-Chloro-4-fluorophenyl)pyridin-3-yl)quinazolin-4-amine]"
12,0.057,"Cc1cccc(-c2ncccc2-c2cc(C)c3[nH]ncc3c2)c1 [Compound 176, 7-Methyl-5-(2-m-tolylpyridin-3-yl)-1H-indazole]"
13,8.62,"CCNC(=O)Nc1cnc(-c2ccc(F)c(C)c2)c(-c2ccc3nccn3c2)c1 [compound 220, 1-Ethyl-3-(6-(4-fluoro-3-methylphenyl)-5-(imidazo[1,2-a]pyridin-6-yl)pyridin-3-yl)urea]"
14,0.267,"Cc1cc(-c2ncccc2-c2ccn3ncc(C(=O)NCCCN4CCN(C)CC4)c3c2)ccc1F [compound 676, 5-(2-(4-Fluoro-3-methylphenyl)pyridin-3-yl)-N-(3-(4-methylpiperazin-1-yl)propyl)pyrazolo[1,5-a]pyridine-3-carboxamide]"
15,0.475,"Cc1cc(-c2ncccc2-c2ccc3ncnc(OCC#N)c3c2)ccc1F [compound 430, 2-((6-(2-(4-Fluoro-3-methylphenyl)pyridin-3-yl)quinazolin-4-yl)oxy)acetonitrile]"
16,10.8,"Cc1cc(-c2ncccc2-c2ccc3ncc(C(=O)Nc4ccc(S(N)(=O)=O)cc4)n3c2)ccc1F [compound 617, 6-(2-(4-Fluoro-3-methylphenyl)pyridin-3-yl)-N-(4-sulfamoylphenyl)imidazo[1,2-a]pyridine-3-carboxamide]"
17,0.129,"N#Cc1cnc2ccc(-c3cccnc3-c3cc(Cl)ccc3F)nn12 [compound 950, 6-(2-(5-Chloro-2-fluorophenyl)pyridin-3-yl)imidazo[1,2-b]pyridazine-3-carbonitrile]"
18,2.13,"Cc1cc(-c2ncccc2-c2ccc3ncc(C(=O)OC[C@@H](N)Cc4c[nH]c5ccccc45)n3c2)ccc1F [compound 615, (S)-2-Amino-3-(1H-indol-3-yl)propyl 6-(2-(4-fluoro-3-methylphenyl)pyridin-3-yl)imidazo[1,2-a]pyridine-3-carboxylate formic acid salt]"
19,2.36,"Fc1ccc(-c2ncccc2-c2ccc3ncsc3c2)c(F)c1 [compound 665, 6-(2-(2,4-Difluorophenyl)pyridin-3-yl)benzo[d]thiazole]"
20,0.553,"Cc1cc(-c2ncccc2-c2ccc3ncc(C(=O)Nc4ccncc4)n3c2)ccc1F [compound 654, 6-(2-(4-Fluoro-3-methylphenyl)pyridin-3-yl)-N-(pyridin-4-yl)imidazo[1,2-a]pyridine-3-carboxamide]"
